Each structure is given as a SMILES string. Like-named read-outs stand apart in the source and are kept apart here.

Data on 14 compounds can be found in patent US20100035753A1, “Fungicidal Mixtures Comprising Substituted 1-methylpyrazol-4-ylcarboxanilides” (BASF SE, priority 2007, published 2010).

Test [1] deals with Phytophthora infestans. The format is cell-based.
For test [2], the system named is Pyricularia oryzae. The format is cell-based. The note with it: 0.25 ppm.
Test [3] has as its system Phytophthora infestans. The format is cell-based. The source holds these as a separate data set.
The test system of test [4] is Puccinia recondita. Put plainly: Use Example 5: curative control of brown rust on wheat. In kind it is in vivo. The procedure: (§1) The active compounds, separately or jointly, were prepared as a stock solution comprising 25 mg of active compound which was made up to 10 ml using a mixture of acetone and/or DMSO and the emulsifier Uniperol® EL (wetting agent having an emulsifying and dispersing action based on ethoxylated alkylphenols) in a ratio by volume of solvent/emulsifier of 99:1. The mixture was then made up to 100 ml with water. This stock solution was diluted with the solvent/emulsifier/water mixture described to give the concentration of active compound stated below.
(§2) The visually determined percentages of infected leaf areas were converted into efficacies in % of the untreated control:
(§3) The efficacy (E) is calculated as follows using Abbot's formula: […]
(§4) α corresponds to the fungicidal infection of the treated plants in % and
(§5) β corresponds to the fungicidal infection of the untreated (control) plants in %
(§6) An efficacy of 0 means that the infection level of the treated plants corresponds to that of the untreated control plants; an efficacy of 100 means that the treated plants were not infected.
(§7) The expected efficacies of active compound combinations were determined using Colby's formula (Colby, S. R. “Calculating synergistic and antagonistic responses of herbicide combinations”, Weeds, 15, pp. 20-22, 1967) and compared with the observed efficacies.
(§8) Colby's formula: E=x+y−x·y/100 • E expected efficacy, expressed in % of the untreated control, when using the mixture of the active compounds A and B at the concentrations a and b • x efficacy, expressed in % of the untreated control, when using the active compound A at the concentration a • y efficacy, expressed in % of the untreated control, when using the active compound B at the concentration b
The first two developed leaves of pot-grown wheat seedling were dusted with spores of Puccinia recondita. To ensure the success the artificial inoculation, the plants were transferred to a humid chamber without light and a relative humidity of 95 to 99% and 20 to 22° C. for 24 h. The next day the plants were sprayed to run-off with an aqueous suspension, containing the concentration of active ingredient or their mixture as described below. The plants were allowed to air-dry. Then the trial plants were cultivated for 8 days in a greenhouse chamber at 22-26° C. and a relative humidity between 65 and 70%. The extent of fungal attack on the leaves was visually assessed as % diseased leaf area.

Test [5] deals with Septoria tritici.
A further test concerns Phakopsora pachyrhizi. Description: Use Example 8: curative control of soy bean rust on soy beans. In kind it is in vivo. The note with it: 0.25 ppm. As to the method:
as §1, §2, §3, §4
(§9) β corresponds to the fungicidal infection of the untreated (control) plants in % […]
(§10) The expected efficacies of active compound combinations were determined using Colby's formula (Colby, S. R. “Calculating synergistic and antagonistic responses of herbicide combinations”, Weeds, 15, pp. 20-22, 1967) and compared with the observed efficacies. […]
Leaves of pot-grown soy bean seedlings were inoculated with spores of Phakopsora pachyrhizi. […] The extent of fungal attack on the leaves was visually assessed as % diseased leaf area.

Test [6] has as its system Phytophthora infestans. In kind it is in vivo.
In test [7] the test system is Botrytis cinerea. Put plainly: Use Example 2: preventative control of grey mold on leaves of green pepper. In kind it is in vivo. The note with it: 4 ppm. As to the method: as §1, §2, §3, §4, §9, §10
Young seedlings of green pepper were grown in pots to the 2 to 3 leaf stage. […] After 5 days at 22 to 24° C. and a relative humidity close to 100% the extent of fungal attack on the leaves was visually assessed as % diseased leaf area.

In test [8] the test system is Ramularia collo-cygni/Physiological leaf spots. Description: Control of phytopathogenic fungi in barley (statement in the description). The format is in vivo. To be noted: solo or in combination with an active compound II.
A further test deals with Alternaria solani. Put plainly: Use Example 1: preventative fungicidal control of early blight on tomatoes. In kind it is in vivo. To be noted: 0.25 ppm. The procedure:
as §1, §2, §3, §4, §5, §6, §7, §8
Young seedlings of tomato plants were grown in pots. […] After 5 days at 20 to 22° C. and a relative humidity close to 100%, the extent of fungal attack on the leaves was visually assessed as % diseased leaf area.

A further test concerns Pyrenophora teres. Put plainly: Use Example 7: control of net blotch on barley. The format is in vivo, Pyrenophora (syn. Drechslera) teres. The procedure:
as §1, §2, §3, §10
The first fully developed leaves of pot grown barley plants were sprayed to run-off with an aqueous suspension, containing the concentration of active ingredient or their mentioned in the table below. […] After 6 days of cultivation at 20-24° C. and a relative humidity close to 70%, the extent of fungal attack on the leaves was visually assessed as % leaf area.

For test [9], the system named is Blumeria graminis f. sp. tritici. Description: Use Example 4: control of powdery mildew on wheat. In kind it is in vivo. To be noted: 0.25 ppm. As to the method: as §1, §2, §3, §10
The first fully developed leaves of pot grown wheat were sprayed to run-off with an aqueous suspension, containing the concentration of active ingredient or their mixture mentioned in the table below. […] After cultivation in the greenhouse for 7 days at 22-26° C. and a relative humidity between 60 to 90% the extent of fungal attack on the leaves was visually assessed as % diseased leaf area.

Test [10] concerns Puccinia recondita. Description: Use Example 6: preventative control of brown rust on wheat. In kind it is in vivo. To be noted: 0.25 ppm. The procedure: as §1, §2, §3
α corresponds to the fungicidal infection of the treated plants in % and […]
as §10
The first two developed leaves of pot-grown wheat seedling were sprayed to run-off with an aqueous suspension, containing the concentration of active ingredient or their as described below. […] The extent of fungal attack on the leaves was visually assessed as % diseased leaf area.

Test [11] concerns Botrytis cinerea. Put plainly: Use Example 9.2: activity against grey mold in the microtiterplate test. The format is cell-based.
In test [12] the test system is Pyricularia oryzae. In kind it is cell-based.
The subject of test [13] is Septoria tritici. Description: Use Example 13: control of Septoria tritici. The format is cell-based.

`COC(=O)[C@@H](C)N(C(=O)Cc1ccccc1)c1c(C)cccc1C` [Benalaxyl-M, benalaxyl-M, reference compound]: the “Observed activity (% infection)” value in the test on Phytophthora infestans [1] (16 ppm) is reported as 18%. Also, the “Observed activity (%)” value with Pyricularia oryzae [2] turned out to be 0%.

`C[N+]1(C)CCCCC1` [Mepiquat-chloride]: the “Observed activity (% infection)” value in the test on Phytophthora infestans [3] (63 ppm) turned out to be 14%.

Consider `Cc1nn(C)c(F)c1C(=O)Nc1ccccc1C(C)CC(C)C` (centres unmarked) [N-(2-(1,3-dimethylbutyl)-phenyl)-1,3-dimethyl-5-fluoro-1H-pyrazole-4-carboxylic acid amide], for which the “Observed efficacy (% of untreated control)” value was 0% with Puccinia recondita [4] (0.25 ppm), 0% with Puccinia recondita [4] (1 ppm), 60% in the test on Phakopsora pachyrhizi and 0% in the test on Botrytis cinerea [7]. The same compound displayed an Observed activity with Septoria tritici [5] (0.004 ppm) of 1%. Further, the “Observed activity (% infection)” value in the test with Phytophthora infestans [6] (1 ppm) and in the test with Phytophthora infestans [6] (4 ppm) was 0% throughout.

On to `Cn1cc(C(=O)Nc2ccc(F)cc2-c2ccc(Cl)c(Cl)c2)c(C(F)F)n1` [N-(3′,4′-dichloro-5-fluorobiphenyl-2-yl)-1-methyl-3-difluoromethyl-1H-pyrazole-4-carboxamide], for which the “activity against Ramularia collo-cygni/Physiological leaf spots” value in [8] is reported as “excellent activity”.

Turning to `CCN(C)C=Nc1cc(C)c(Oc2ccc(Cl)c(C(F)(F)F)c2)cc1C` [N′-(4-(4-chloro-3-trifluoromethyl-phenoxy)-2,5-dimethyl-phenyl)-N-ethyl-N-methyl formamidine], the “Observed activity (% infection)” value is 33% with Phytophthora infestans [1] (4 ppm) and 0% with Phytophthora infestans [6] (1 ppm). The “Observed fungicidal efficacy (% of untreated control)” value with Alternaria solani turned out to be 22%. Further, the “Observed efficacy (% of untreated control)” value with Pyrenophora teres (0.25 ppm) was found to be 25%.

As to `CCN(C)C=Nc1cc(C)c(Oc2ccc(F)c(C(F)(F)F)c2)cc1C` [N′-(4-(4-fluoro-3-trifluoromethyl-phenoxy)-2,5-dimethyl-phenyl)-N-ethyl-N-methyl formamidine], the “Observed efficacy (% of untreated control)” value with Puccinia recondita [4] (0.25 ppm) was 67%; in test [9], 38%; with Pyrenophora teres (1 ppm) it was 13%. For the same compound, the “Observed fungicidal efficacy (% of untreated control)” value with Alternaria solani is 0%. Also, the “Observed activity (% infection)” value in the test on Phytophthora infestans [6] (16 ppm) came out at 0%.

Consider `CCC(=O)C1=C([O-])CC(C(=O)[O-])CC1=O.[Ca+2]` (centres unmarked) [Prohexadione-Ca], for which, in the test with Phytophthora infestans [3] (16 ppm), the “Observed activity (% infection)” value was 17%.

For `CCOC(=O)C1CC(=O)C(=C(O)C2CC2)C(=O)C1` (centres unmarked) [Trinexapac-ethyl], the “Observed activity (% infection)” value with Phytophthora infestans [3] (63 ppm) came out at 39%.

For the compound `Clc1ccc(C2(Cn3cncn3)OCCO2)c(Cl)c1` [azaconazole], the “Observed efficacy (% of untreated control)” value in the test with Puccinia recondita [4] (0.25 ppm), in the test on Puccinia recondita [10] and in the test on Botrytis cinerea [7] was 0% throughout. Further, the “Observed fungicidal efficacy (% of untreated control)” value in the test on Alternaria solani came out at 0%. For the same compound, the Observed activity in the test on Septoria tritici [5] (0.016 ppm) is on record as 19%. For the same compound, the “Observed activity (% infection)” value in the test on Phytophthora infestans [6] (4 ppm) was determined as 0%.

Regarding `O=C(NCCc1ncc(C(F)(F)F)cc1Cl)c1ccccc1C(F)(F)F` [fluopyram], in the test with Botrytis cinerea [11] (0.004 ppm), the “Observed activity (%)” value is recorded as 4%.

With `Clc1cccc(C(Cl)(Cl)Cl)n1` [nitrapyrin], the “Observed activity (%)” value in the test on Botrytis cinerea [11] (0.016 ppm) is on record as 10%.

Turning to `CC1CCCCN1CCCOC(=O)c1ccc(Cl)c(Cl)c1` (centres unmarked) [piperalin], in the test with Botrytis cinerea [11] (0.016 ppm), the “Observed activity (%)” value is listed as 12%.

For `CCC(=O)C1=C([O-])CC(C(=O)[O-])CC1=O.[Ca+2]` (centres unmarked) [prohexadione-Ca], the “Observed activity (%)” value in the test with Pyricularia oryzae [12] (0.25 ppm) came to 0%. The “Observed fungicidal efficacy (%)” value in the test with Septoria tritici [13] (0.25 ppm) was 0%.

With `CCOC(=O)C1CC(=O)C(=C(O)C2CC2)C(=O)C1` (centres unmarked) [trinexapac-ethyl], the “Observed activity (%)” value with Pyricularia oryzae [12] (4 ppm) came out at 2%. Further, in the test with Septoria tritici [13] (4 ppm), the “Observed fungicidal efficacy (%)” value was 2%.
